According to patent US11299478B2, “2-cyanopyrimidin-4-yl carbamate or urea derivative or salt thereof, and pharmaceutical composition including same” (HANLIM PHARMACEUTICAL CO., LTD., priority 2018, dated 2022):

Key:
Type in all cases: biochemical
cathepsin B = cathepsin B (Homo sapiens, UniProt P07858); test: Inhibitory activity assay against cathepsin B (enzyme assay); settings: Z-Arg-Arg-AMC 40 μM, enzyme 1 nM, pH 6.0, 90 minutes
Procedure: In order to measure the enzyme activity of cathepsin B, a buffer solution (pH 6.0) consisting of 50 mM MES, 5 mM DTT, 2.5 mM EDTA, 0.005% Polysorbate 20, and 10% DMSO was prepared. The substrate, the test material, and the enzyme were mixed in the buffer solution in a predetermined concentration. The Z-Arg-Arg-AMC substrate was used in the final concentration of 40 μM. The test material was used in the final concentrations of 10.0 μM, 3.33 μM, 1.11 μM, 0.370 μM, 0.123 μM, 0.0412 μM, 0.0137 μM, 0.00457 μM, 0.00152 μM, and 0.000508 μM, respectively. The cathepsin B enzyme was used in the final concentration of 1 nM. The final volume of the enzyme reaction solution was 10 μL. After reacting the mixture of substrate, test material, and enzyme for 90 minutes, the enzyme activity was measured with the EnVision (Perkin Elmer) microplate reader at an absorption wavelength of 340 nm and an emission wavelength of 460 nm. IC50 values were determined using 4-parameter logistic curve fit program of GraphPad Prism.

cathepsin S = cathepsin S (Homo sapiens, UniProt P25774); test: Inhibitory activity assay against cathepsin S (enzyme assay); settings: Z-Phe-Arg-AMC 70 μM, enzyme 3 nM, pH 6.5, 45 minutes
Chain of cathepsin S (P25774 115-331, species assumed): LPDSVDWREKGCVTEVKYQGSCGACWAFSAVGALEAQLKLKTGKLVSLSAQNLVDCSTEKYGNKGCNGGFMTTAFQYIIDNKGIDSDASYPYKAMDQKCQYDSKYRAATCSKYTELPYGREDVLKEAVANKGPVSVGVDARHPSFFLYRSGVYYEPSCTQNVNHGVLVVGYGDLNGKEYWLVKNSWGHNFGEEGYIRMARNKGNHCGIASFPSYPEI
Procedure: In order to measure the enzyme activity of cathepsin S, a buffer solution (pH 6.5) consisting of 50 mM MES, 2.5 mM DTT, 1.0 mM EDTA, 0.001% bovine serum albumin (BSA), and 10% DMSO was prepared. The substrate, the test material, and the enzyme were mixed in the buffer solution in a predetermined concentration. The Z-Phe-Arg-AMC substrate was used in the final concentration of 70 μM. The test material was used in the final concentrations of 10.0 μM, 3.33 μM, 1.11 μM, 0.370 μM, 0.123 μM, 0.0412 μM, 0.0137 μM, 0.00457 μM, 0.00152 μM, and 0.000508 μM, respectively. The cathepsin S enzyme was used in the final concentration of 3 nM. The final volume of the enzyme reaction solution was 10 μL.
After reacting the mixture of substrate, test material, and enzyme for 45 minutes, the enzyme activity was measured with the EnVision (Perkin Elmer) microplate reader at an absorption wavelength of 340 nm and an emission wavelength of 460 nm. IC50 values were determined using 4-parameter logistic curve fit program of GraphPad Prism.

cathepsin L = cathepsin L (Homo sapiens, UniProt P07711); test: Inhibitory activity assay against cathepsin L (enzyme assay); settings: Z-Phe-Arg-AMC 2 μM, enzyme 3 nM, pH 5.5, 30 minutes
Chain of cathepsin L (P07711 114-333, species assumed): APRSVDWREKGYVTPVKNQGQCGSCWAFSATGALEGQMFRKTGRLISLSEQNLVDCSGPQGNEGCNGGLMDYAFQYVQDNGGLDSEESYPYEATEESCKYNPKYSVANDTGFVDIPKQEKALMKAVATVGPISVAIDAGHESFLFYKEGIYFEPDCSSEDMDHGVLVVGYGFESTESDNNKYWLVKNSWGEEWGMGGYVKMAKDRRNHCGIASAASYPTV
Procedure: In order to measure the enzyme activity of cathepsin L, a buffer solution (pH 5.5) consisting of 50 mM MES, 2.5 mM DTT, 2.5 mM EDTA, 0.005% Polysorbate 20, and 10% DMSO was prepared. The substrate, the test material, and the enzyme were mixed in the buffer solution in a predetermined concentration. The Z-Phe-Arg-AMC substrate was used in the final concentration of 2 μM. The test material was used in the final concentrations of 10.0 μM, 3.33 μM, 1.11 μM, 0.370 μM, 0.123 μM, 0.0412 μM, 0.0137 μM, 0.00457 μM, 0.00152 μM, and 0.000508 μM, respectively. The cathepsin L enzyme was used in the final concentration of 3 nM. The final volume of the enzyme reaction solution was 10 μL. After reacting the mixture of substrate, test material, and enzyme for 30 minutes, the enzyme activity was measured with the EnVision (Perkin Elmer) microplate reader at an absorption wavelength of 340 nm and an emission wavelength of 460 nm. IC50 values were determined using 4-parameter logistic curve fit program of GraphPad Prism.

cathepsin K = biological target: T1, cathepsin K (Homo sapiens, UniProt P43235); test: Inhibitory activity assay against cathepsin K (enzyme assay); settings: Z-Phe-Arg-AMC 10 μM, enzyme 1 nM, pH 5.5, 30 minutes
T1 sequence (P43235 115-329): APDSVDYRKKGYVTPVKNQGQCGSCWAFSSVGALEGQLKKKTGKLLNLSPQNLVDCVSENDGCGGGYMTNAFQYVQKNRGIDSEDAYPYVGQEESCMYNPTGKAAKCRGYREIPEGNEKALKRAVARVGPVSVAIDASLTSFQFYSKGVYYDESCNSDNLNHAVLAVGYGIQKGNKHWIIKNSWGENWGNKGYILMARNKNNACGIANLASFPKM
Procedure, shortened: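 Fluorogenic assay with 1 nM cathepsin K and 10 μM Z-Phe-Arg-AMC in pH 5.5 buffer (50 mM MES, 2 mM DTT, 2.5 mM EDTA, 0.01% Triton X-100, 10% DMSO). Ten compound concentrations, 10.0 to 0.000508 μM; 30 min reaction, ex 355/em 460 nm; IC50 by 4-parameter logistic fit.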

| IC50 (cathepsin B) | IC50 (cathepsin S) | IC50 (cathepsin L) | IC50 (cathepsin K) | SMILES |
| --- | --- | --- | --- | --- |
| > 10000 nM | > 10000 nM | 8060 nM | 69.6 nM | Cc1cccc(NC(=O)NC2(c3ccnc(C#N)n3)CCCC2)c1 [Example 38, 1-(1-(2-cyanopyrimidin-4-yl)cyclopentyl)-3-(meta-tolyl)urea] |
| > 10000 nM | > 10000 nM | 9230 nM | 93.3 nM | N#Cc1nccc(C2(NC(=O)NCc3ccccc3F)CCCC2)n1 [Example 40, 1-(1-(2-cyanopyrimidin-4-yl)cyclopentyl)-3-(2-fluorobenzyl)urea] |
| > 10000 nM | > 10000 nM | 8180 nM | 39.9 nM | N#Cc1nccc(C2(NC(=O)Nc3ccccc3)CCCC2)n1 [Example 41, 1-(1-(2-cyanopyrimidin-4-yl)cyclopentyl)-3-phenylurea] |
| > 10000 nM | > 10000 nM | 7540 nM | 31.2 nM | N#Cc1nccc(C2(NC(=O)NCc3ccccc3)CCCC2)n1 [Example 42, 1-benzyl-3-(1-(2-cyanopyrimidin-4-yl)cyclopentyl)urea] |
| > 10000 nM | > 10000 nM | > 10000 nM | 18.5 nM | N#Cc1nccc(C2(NC(=O)Nc3ccc(Oc4ccccc4)cc3)CCCC2)n1 [Example 44, 1-(1-(2-cyanopyrimidin-4-yl)cyclopentyl)-3-(4-phenoxyphenyl)urea] |
| > 10000 nM | > 10000 nM | 5970 nM | 13.2 nM | Cc1ccccc1CNC(=O)NC1(c2ccnc(C#N)n2)CCCC1 [Example 46, 1-(1-(2-cyanopyrimidin-4-yl)cyclopentyl)-3-(2-methylbenzyl)urea] |
| > 10000 nM | > 10000 nM | 4170 nM | 38.8 nM | CC(NC(=O)NC1(c2ccnc(C#N)n2)CCCC1)c1ccccc1 (centres unmarked) [Example 51, 1-(1-(2-cyanopyrimidin-4-yl)cyclopentyl)-3-(1-phenylethyl)urea] |
| 5660 nM | > 10000 nM | > 10000 nM | 19.5 nM | N#Cc1nccc(C2(NC(=O)NCc3cccc4ccccc34)CCCC2)n1 [Example 55, 1-(1-(2-cyanopyrimidin-4-yl)cyclopentyl)-3-(naphthalen-1-ylmethyl)urea] |
| > 10000 nM | > 10000 nM | > 10000 nM | 83.7 nM | Cc1ccc(NC(=O)NC2(c3ccnc(C#N)n3)CCCC2)cc1C [Example 62, 1-(1-(2-cyanopyrimidin-4-yl)cyclopentyl)-3-(3,4-dimethylphenyl)urea] |

The next lines start with the compound.

| SMILES | IC50 (cathepsin B) | IC50 (cathepsin S) | IC50 (cathepsin L) | IC50 (cathepsin K) |
| --- | --- | --- | --- | --- |
| N#Cc1nccc(C2(NC(=O)OCc3ccc(-c4ccc(N5CCOCC5)cc4)cc3)CCCC2)n1 [Example 31, (4′-morpholino-[1,1′-biphenyl]-4-yl)methyl (1-(2-cyanopyrimidin-4-yl)cyclopentyl)carbamate] | > 10000 nM | > 10000 nM | > 10000 nM | 934 nM |
| N#Cc1nccc(C2(NC(=O)OCc3ccc(-c4ccc(F)nc4)cc3)CCCC2)n1 [Example 33, 4-(6-fluoropyridin-3-yl)benzyl (1-(2-cyanopyrimidin-4-yl)cyclopentyl)carbamate] | > 10000 nM | > 10000 nM | > 10000 nM | 1620 nM |
| N#Cc1nccc(C2(NC(=O)OCc3cccc(-c4ccc(F)nc4)c3)CCCC2)n1 [Example 35, 3-(6-fluoropyridin-3-yl)benzyl (1-(2-cyanopyrimidin-4-yl)cyclopentyl)carbamate] | > 10000 nM | > 10000 nM | > 10000 nM | 492 nM |
| Cn1ncc2ccc(-c3cccc(COC(=O)NC4(c5ccnc(C#N)n5)CCCC4)c3)cc21 [Example 36, 3-(1-methyl-1H-indazol-6-yl)benzyl (1-(2-cyanopyrimidin-4-yl)cyclopentyl)carbamate] | > 10000 nM | 7350 nM | > 10000 nM | 31.9 nM |
| N#Cc1nccc(C2(NC(=O)NCc3ccc4c(c3)OCO4)CCCC2)n1 [Example 43, 1-(benzo[d][1,3]dioxol-5-ylmethyl)-3-(1-(2-cyanopyrimidin-4-yl)cyclopentyl)urea] | > 10000 nM | > 10000 nM | > 10000 nM | 462 nM |
| Cc1ccc(CNC(=O)NC2(c3ccnc(C#N)n3)CCCC2)cc1 [Example 48, 1-(1-(2-cyanopyrimidin-4-yl)cyclopentyl)-3-(4-methylbenzyl)urea] | > 10000 nM | > 10000 nM | > 10000 nM | 49.6 nM |
| Cc1ccc(C)c(NC(=O)NC2(c3ccnc(C#N)n3)CCCC2)c1 [Example 50, 1-(1-(2-cyanopyrimidin-4-yl)cyclopentyl)-3-(2,5-dimethylphenyl)urea] | > 10000 nM | > 10000 nM | 2670 nM | 4.3 nM |
| N#Cc1nccc(C2(NC(=O)NCc3ccc(F)cc3)CCCC2)n1 [Example 54, 1-(1-(2-cyanopyrimidin-4-yl)cyclopentyl)-3-(4-fluorobenzyl)urea] | > 10000 nM | > 10000 nM | > 10000 nM | 76 nM |
| N#Cc1nccc(C2(NC(=O)NCc3ccccc3C(F)(F)F)CCCC2)n1 [Example 56, 1-(1-(2-cyanopyrimidin-4-yl)cyclopentyl)-3-(2-(trifluoromethyl)benzyl)urea] | > 10000 nM | > 10000 nM | > 10000 nM | 101 nM |
| N#Cc1nccc(C2(NC(=O)Nc3cccc(C(F)(F)F)c3)CCCC2)n1 [Example 60, 1-(1-(2-cyanopyrimidin-4-yl)cyclopentyl)-3-(3-(trifluoromethyl)phenyl)urea] | 8780 nM | > 10000 nM | > 10000 nM | 21.6 nM |
| Cc1cc(C)cc(NC(=O)NC2(c3ccnc(C#N)n3)CCCC2)c1 [Example 63, 1-(1-(2-cyanopyrimidin-4-yl)cyclopentyl)-3-(3,5-dimethylphenyl)urea] | > 10000 nM | > 10000 nM | > 10000 nM | 64.3 nM |
| Cc1cccc(NC(=O)NC2(c3ccnc(C#N)n3)CCCC2)c1C [Example 64, 1-(1-(2-cyanopyrimidin-4-yl)cyclopentyl)-3-(2,3-dimethylphenyl)urea] | 5890 nM | > 10000 nM | 5510 nM | 75.9 nM |
| N#Cc1nccc(C2(NC(=O)Nc3cc(F)ccc3F)CCCC2)n1 [Example 65, 1-(1-(2-cyanopyrimidin-4-yl)cyclopentyl)-3-(2,5-difluorophenyl)urea] | > 10000 nM | > 10000 nM | > 10000 nM | 46.6 nM |
| Cc1ccc(C(F)(F)F)cc1NC(=O)NC1(c2ccnc(C#N)n2)CCCC1 [Example 66, 1-(1-(2-cyanopyrimidin-4-yl)cyclopentyl)-3-(2-methyl-5-(trifluoromethyl)phenyl)urea] | > 10000 nM | > 10000 nM | > 10000 nM | 3.4 nM |
